ChEMBL document CHEMBL5620418
Calls of active or inactive are those of the source. The calls are words filed in the database; no cut-off is given here.

System: Mus musculus
Experiment: Inhibition of morphine-induced intestinal propulsion function in mouse assessed as charcoal propulsion length at 10 mg/kg, ip by charcoal gavage and intestinal motility assays
Format: functional, organism-based

## COC(=O)/C=C/C(=O)N[C@@H]1CC[C@@]2(O)[C@H]3Cc4ccc(O)c5c4[C@@]2(CCN3CC2CC2)[C@H]1O5
  inhibition: Active
